The experiment concerns the target Cannabinoid receptor 1 (Mus musculus, UniProt P47746). As to the kind of experiment: [35S]GTPγS Binding Assay. The procedure:
For receptor signaling, membranes (10 μg protein) from either ICR mouse cerebellum mice (6-8 weeks old; Enviga International, Indianapolis, Indiana, United States of America) or HEK cells stably expressing CB1 receptor were preincubated in assay buffer for 10 min with 3 units/ml adenosine deaminase then incubated for 60 min at 30° C. with 30 μM GDP and 0.1 nM [35S]GTPγS (Perkin Elmer Life Sciences, Boston, Massachusetts, United States of America). Non-specific binding was determined by adding 30 μM unlabeled GTPγS.

Structures are written as SMILES.

The IC50 is the concentration that inhibits the measured activity by half.

Cannabinoid receptor 1, sequence (P47746 whole entry): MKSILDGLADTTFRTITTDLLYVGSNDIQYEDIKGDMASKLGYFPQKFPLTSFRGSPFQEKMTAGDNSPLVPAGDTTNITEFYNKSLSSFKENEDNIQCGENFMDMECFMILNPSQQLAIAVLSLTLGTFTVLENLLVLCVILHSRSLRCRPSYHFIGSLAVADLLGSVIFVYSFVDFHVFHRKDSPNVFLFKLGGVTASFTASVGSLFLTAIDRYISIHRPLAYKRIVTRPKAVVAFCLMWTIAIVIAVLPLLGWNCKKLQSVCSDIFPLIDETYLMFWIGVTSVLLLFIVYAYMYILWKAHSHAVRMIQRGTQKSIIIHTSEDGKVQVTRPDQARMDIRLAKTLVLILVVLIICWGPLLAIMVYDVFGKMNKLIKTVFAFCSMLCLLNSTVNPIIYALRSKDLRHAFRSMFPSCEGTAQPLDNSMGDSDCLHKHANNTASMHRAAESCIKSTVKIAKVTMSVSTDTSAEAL

Take `O=c1c(NCCc2cccc(Cl)c2)c(Nc2ccc(Cl)cc2)c1=O` [US20260062376, Compound 7]: the half-inhibitory concentration (IC50) stood at 229 nM. This counts as sub-micromolar.

As to `O=c1c(NCCc2ccc(Cl)cc2)c(Nc2ccc(Cl)cc2)c1=O` [US20260062376, Compound 13], the IC50 amounted to 275 nM.

For the compound `Cc1cccc(CCNc2c(Nc3ccc(Cl)cc3)c(=O)c2=O)c1` [US20260062376, Compound 14], the IC50 was 166 nM. This IC50 is about 1.7-fold lower than that of the compound before.

In turn, `Cc1ccc(CCNc2c(Nc3ccc(Cl)cc3)c(=O)c2=O)cc1` [US20260062376, Compound 15] gave an IC50 of 81.3 nM.

In the case of `O=c1c(NCCc2ccccc2F)c(Nc2ccc(Cl)cc2)c1=O` [US20260062376, Compound 24], the IC50 was 661 nM.

In turn, `O=c1c(NCCc2cccc(F)c2)c(Nc2ccc(Cl)cc2)c1=O` [US20260062376, Compound 25] registered an IC50 of 240 nM. Compared with the last compound, the IC50 is about 2.8-fold lower.

For `CN(C)c1cccc(CCNc2c(Nc3ccc(Cl)cc3)c(=O)c2=O)c1` [US20260062376, Compound 26], the IC50 worked out at 1100 nM.

The compound `CN(C)c1ccc(CCNc2c(Nc3ccc(Cl)cc3)c(=O)c2=O)cc1` [US20260062376, Compound 27] came in with an IC50 of 40.7 nM.

In turn, `Cc1ccccc1CCNc1c(Nc2ccc(Cl)cc2)c(=O)c1=O` [US20260062376, Compound 35] registered an IC50 of 2690 nM.

Turning to `O=c1c(NCCc2ccccn2)c(Nc2ccc(Cl)cc2)c1=O` [US20260062376, Compound 36], the 50% inhibitory concentration (IC50) worked out at 1780 nM.

As for `O=c1c(NCCc2ccc(Br)cc2)c(Nc2ccc(Cl)cc2)c1=O` [US20260062376, Compound 38], the 50% inhibitory concentration (IC50) was determined as 871 nM.

`O=c1c(NCCc2cccs2)c(Nc2ccc(Cl)cc2)c1=O` [US20260062376, Compound 39] registered an IC50 of 1350 nM.

With `O=c1c(NCCc2ccc(Cl)c(Cl)c2)c(Nc2ccc(Cl)cc2)c1=O` [US20260062376, Compound 41], the concentration for half-maximal inhibition (IC50) came out at 295 nM.

Turning to `Cc1ccc(CCNc2c(Nc3ccc(Cl)cc3)c(=O)c2=O)cc1C` [US20260062376, Compound 42], the half-inhibitory concentration (IC50) amounted to 331 nM.

Compound `O=c1c(NCCc2cccc(O)c2)c(Nc2ccc(Cl)cc2)c1=O` [US20260062376, Compound 43] showed a half-maximal inhibitory concentration (IC50) of 4790 nM.

With `O=c1c(NCCc2ccc(Cl)cc2Cl)c(Nc2ccc(Cl)cc2)c1=O` [US20260062376, Compound 44], the IC50 stood at 525 nM.

The compound `CCN(CC)c1ccc(CCNc2c(Nc3ccc(Cl)cc3)c(=O)c2=O)cc1` [US20260062376, Compound 48] returned an IC50 of 468 nM.

(Values after BindingDB's records for patent US20260062376 (Research Triangle Institute, 2026).)
